Common to all, as to format: biochemical
In one test the target is T1, PAD1 (Homo sapiens, UniProt Q9ULC6).
T1 construct: made in house
T1 sequence (Q9ULC6 1-663): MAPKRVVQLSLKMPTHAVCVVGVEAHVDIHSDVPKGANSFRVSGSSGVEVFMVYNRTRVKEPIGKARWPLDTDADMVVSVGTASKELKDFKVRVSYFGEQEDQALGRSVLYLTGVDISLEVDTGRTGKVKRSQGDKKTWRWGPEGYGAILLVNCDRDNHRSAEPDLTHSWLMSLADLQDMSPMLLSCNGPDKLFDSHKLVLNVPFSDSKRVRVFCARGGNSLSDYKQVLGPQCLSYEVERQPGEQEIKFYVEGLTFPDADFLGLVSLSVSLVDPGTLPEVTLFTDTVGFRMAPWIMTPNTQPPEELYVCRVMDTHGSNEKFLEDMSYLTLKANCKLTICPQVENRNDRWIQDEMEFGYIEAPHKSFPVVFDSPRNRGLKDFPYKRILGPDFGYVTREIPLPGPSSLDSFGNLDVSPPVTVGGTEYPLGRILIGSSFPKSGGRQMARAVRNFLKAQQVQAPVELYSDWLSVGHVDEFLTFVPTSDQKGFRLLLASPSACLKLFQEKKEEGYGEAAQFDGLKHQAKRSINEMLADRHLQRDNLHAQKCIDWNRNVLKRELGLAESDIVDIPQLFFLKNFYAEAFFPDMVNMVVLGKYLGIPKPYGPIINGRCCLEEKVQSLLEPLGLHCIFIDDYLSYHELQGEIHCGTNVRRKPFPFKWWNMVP
In words: Inactivation kinetics, PAD1. To be noted: for kinact/KI: a: single kobs determined, b: from a linear fit; for Fold PAD1 Selectivity: kinact/KI relative to least inhibited isozyme (1.0). In outline:
(§1)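 PAD1, 2 or 4 (2.0 μM) or PAD3 (5.0 μM) preincubated at 37 °C with varying inhibitor in 50 mM HEPES, 10 mM CaCl2, 2 mM DTT, pH 7.6. Timed aliquots assayed 15 min with 10 mM BAEE (BAA for PAD3); citrulline quantified by COLDER.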

The target of a further test is T2, PAD2 (Homo sapiens, UniProt Q9Y2J8).
T2 construct: made in house
Nature of the test: Inactivation kinetics, PAD2. The following applies: for kinact/KI: a: single kobs determined, b: from a linear fit, other footnotes: from kinact and KI; for Fold PAD2 Selectivity: kinact/KI relative to least inhibited isozyme (1.0). In outline: as §1

The target of the next test is T3, PAD3 (Homo sapiens, UniProt Q9ULW8).
T3 construct: made in house
T3 sequence (Q9ULW8 1-664): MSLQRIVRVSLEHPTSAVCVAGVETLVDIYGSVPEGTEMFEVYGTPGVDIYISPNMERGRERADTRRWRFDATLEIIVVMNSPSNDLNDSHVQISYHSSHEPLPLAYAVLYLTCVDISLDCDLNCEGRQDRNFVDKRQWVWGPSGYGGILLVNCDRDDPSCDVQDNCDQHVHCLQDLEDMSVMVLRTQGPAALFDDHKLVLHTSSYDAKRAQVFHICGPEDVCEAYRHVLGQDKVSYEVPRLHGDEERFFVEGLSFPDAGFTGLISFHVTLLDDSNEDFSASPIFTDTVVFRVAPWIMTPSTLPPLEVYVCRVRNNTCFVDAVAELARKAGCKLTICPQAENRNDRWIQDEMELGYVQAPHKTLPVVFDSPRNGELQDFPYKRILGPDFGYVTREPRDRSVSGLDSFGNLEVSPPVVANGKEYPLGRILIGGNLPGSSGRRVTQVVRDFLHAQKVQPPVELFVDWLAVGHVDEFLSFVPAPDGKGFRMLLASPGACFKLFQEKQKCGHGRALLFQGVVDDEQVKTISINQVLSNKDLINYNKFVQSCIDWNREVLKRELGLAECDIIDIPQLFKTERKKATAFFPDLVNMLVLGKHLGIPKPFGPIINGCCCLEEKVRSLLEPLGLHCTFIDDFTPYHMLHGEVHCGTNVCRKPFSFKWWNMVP
Nature of the test: Inactivation kinetics, PAD3. The following applies: for kinact/KI: a: single kobs determined; for Fold PAD3 Selectivity: kinact/KI relative to least inhibited isozyme (1.0). In outline: as §1

The target in another test is T4, PAD4 (Homo sapiens, UniProt Q9UM07).
T4 construct: made in house
Nature of the test: Inactivation kinetics, PAD4. The following applies: for kinact/KI: a: single kobs determined, b: from a linear fit; for Fold PAD4 Selectivity: kinact/KI relative to least inhibited isozyme (1.0). In outline: as §1

Each structure is given as a SMILES string.

T2 sequence (Q9Y2J8 whole entry): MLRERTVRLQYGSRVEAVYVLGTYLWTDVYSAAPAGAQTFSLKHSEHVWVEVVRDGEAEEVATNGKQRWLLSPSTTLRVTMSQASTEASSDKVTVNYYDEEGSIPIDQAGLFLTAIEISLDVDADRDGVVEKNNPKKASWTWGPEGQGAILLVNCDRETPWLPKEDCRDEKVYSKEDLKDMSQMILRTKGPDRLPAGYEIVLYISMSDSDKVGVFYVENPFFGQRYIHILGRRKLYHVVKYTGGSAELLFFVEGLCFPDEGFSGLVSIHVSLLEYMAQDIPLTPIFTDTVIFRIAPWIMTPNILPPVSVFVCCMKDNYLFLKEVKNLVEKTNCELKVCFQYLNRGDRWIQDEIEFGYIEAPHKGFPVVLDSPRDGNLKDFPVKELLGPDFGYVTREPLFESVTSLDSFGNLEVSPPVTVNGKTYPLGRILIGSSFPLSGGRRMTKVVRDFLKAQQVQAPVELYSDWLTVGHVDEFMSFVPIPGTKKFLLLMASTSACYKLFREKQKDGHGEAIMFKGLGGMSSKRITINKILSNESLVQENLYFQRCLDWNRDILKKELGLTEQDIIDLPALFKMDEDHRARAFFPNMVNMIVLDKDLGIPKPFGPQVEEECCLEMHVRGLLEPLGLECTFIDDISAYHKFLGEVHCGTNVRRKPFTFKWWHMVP
T4 sequence (Q9UM07 whole entry): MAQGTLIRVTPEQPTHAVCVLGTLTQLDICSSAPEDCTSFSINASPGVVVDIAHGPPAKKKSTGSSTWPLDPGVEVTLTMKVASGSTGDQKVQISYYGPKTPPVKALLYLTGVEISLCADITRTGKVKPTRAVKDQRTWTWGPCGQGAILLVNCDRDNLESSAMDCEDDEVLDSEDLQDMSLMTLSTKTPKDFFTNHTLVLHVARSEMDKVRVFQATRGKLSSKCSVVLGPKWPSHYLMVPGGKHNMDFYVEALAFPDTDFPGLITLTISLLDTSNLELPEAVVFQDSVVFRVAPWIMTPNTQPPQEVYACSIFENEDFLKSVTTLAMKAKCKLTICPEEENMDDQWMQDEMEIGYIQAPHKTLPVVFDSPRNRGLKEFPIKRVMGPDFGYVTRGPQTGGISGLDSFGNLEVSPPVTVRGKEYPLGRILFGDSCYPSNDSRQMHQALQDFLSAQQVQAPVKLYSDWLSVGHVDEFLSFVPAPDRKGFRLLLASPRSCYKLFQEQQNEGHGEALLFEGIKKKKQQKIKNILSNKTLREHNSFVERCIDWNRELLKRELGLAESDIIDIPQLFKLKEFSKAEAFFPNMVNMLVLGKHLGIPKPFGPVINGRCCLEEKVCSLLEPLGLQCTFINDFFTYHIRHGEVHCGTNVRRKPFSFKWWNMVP

What is called kinact/KI is the second-order rate constant of inactivation. Take `CCN1Cc2cccc(C(=O)N[C@@H](CCCNC(=N)CCl)c3nc4cc(OC)ccc4n3C)c2C1=O` [Compound 8p, N1-(2-ethyl-3-oxoisoindoline)benzoyl-N5-(2-chloro-1-iminoethyl)-1-(5-methoxy-1-methyl-benzo[d]imidazol-2-yl)-L-ornithine]: at PAD1, the kinact/KI was 1180 M⁻¹ s⁻¹ and the “Fold PAD1 Selectivity” value was determined as 37 fold. Also, on PAD2, the kinact/KI was 1020 M⁻¹ s⁻¹ and the “Fold PAD2 Selectivity” value amounted to 32 fold. On PAD3, the kinact/KI was 296 M⁻¹ s⁻¹ and the “Fold PAD3 Selectivity” value stood at 9.3 fold. In addition, on PAD4, the kinact/KI is 31.7 M⁻¹ s⁻¹ and the “Fold PAD4 Selectivity” value was determined as 1.0 fold.
`COc1cccc2c1nc([C@H](CCCNC(=N)CF)NC(=O)c1cccc3c1C(=O)N(C(C)C)C3)n2C` [Compound 8q]: at PAD1, the kinact/KI was 858 M⁻¹ s⁻¹ and the “Fold PAD1 Selectivity” value is 32 fold. At PAD2, the kinact/KI is 1560 M⁻¹ s⁻¹ and the “Fold PAD2 Selectivity” value stood at 58 fold. At PAD3, the kinact/KI is 26.7 M⁻¹ s⁻¹ and the “Fold PAD3 Selectivity” value was found to be 1.0 fold. On PAD4, the kinact/KI was 70 M⁻¹ s⁻¹ and the “Fold PAD4 Selectivity” value came to 2.6 fold.
With `COc1cccc2c1nc([C@H](CCCNC(=N)CCl)NC(=O)c1cccc3c1C(=O)N(C(C)C)C3)n2C` [Compound 8r], at PAD1, the kinact/KI was 732 M⁻¹ s⁻¹ and the “Fold PAD1 Selectivity” value is listed as 3.5 fold. Moreover, at PAD2, the kinact/KI is 853 M⁻¹ s⁻¹ and the “Fold PAD2 Selectivity” value amounted to 4.1 fold. For the same molecule, on PAD3, the kinact/KI is 241 M⁻¹ s⁻¹ and the “Fold PAD3 Selectivity” value was 1.2 fold. At PAD4, the kinact/KI is 207 M⁻¹ s⁻¹ and the “Fold PAD4 Selectivity” value was 1.0 fold.
On to `COc1cccc2c1nc([C@H](CCCNC(=N)CF)NC(=O)c1cccc3c1C(=O)N(C1CC1)C3)n2C` [Compound 8s], for which, on PAD1, the kinact/KI was 766 M⁻¹ s⁻¹ and the “Fold PAD1 Selectivity” value is reported as 38 fold. For the same molecule, at PAD2, the kinact/KI was 1570 M⁻¹ s⁻¹ and the “Fold PAD2 Selectivity” value was 77 fold. Further, on PAD3, the kinact/KI is 20.3 M⁻¹ s⁻¹ and the “Fold PAD3 Selectivity” value is 1.0 fold. Further, at PAD4, the kinact/KI was 75 M⁻¹ s⁻¹ and the “Fold PAD4 Selectivity” value was determined as 3.8 fold.
As to `COc1cccc2c1nc([C@H](CCCNC(=N)CCl)NC(=O)c1cccc3c1C(=O)N(C1CC1)C3)n2C` [Compound 8t], on PAD1, the kinact/KI was 674 M⁻¹ s⁻¹ and the “Fold PAD1 Selectivity” value worked out at 4.7 fold. In addition, at PAD2, the kinact/KI is 958 M⁻¹ s⁻¹ and the “Fold PAD2 Selectivity” value is 6.7 fold. Besides, at PAD3, the kinact/KI is 158 M⁻¹ s⁻¹ and the “Fold PAD3 Selectivity” value came out at 1.1 fold. Moreover, at PAD4, the kinact/KI was 143 M⁻¹ s⁻¹ and the “Fold PAD4 Selectivity” value is on record as 1.0 fold.
The kinact is the maximal first-order rate at which the target is inactivated. In the case of `CCN1Cc2cccc(C(=O)N[C@@H](CCCNC(=N)CF)c3nc4c(OC)cccc4n3CC)c2C1=O` [Compound 8u, N1-(2-ethyl-3-oxoisoindoline)benzoyl-N5-(2-fluoro-1-iminoethyl)-1-(4-methoxy-1-ethyl-benzo[d]imidazol-2-yl)-L-ornithine], on PAD1, the kinact/KI is 652 M⁻¹ s⁻¹ and the “Fold PAD1 Selectivity” value is 28 fold. For the same molecule, at PAD2 (PAD2, table footnote), the Ki was determined as 23.4 µM and the kinact was 0.0218 s⁻¹. Also, at PAD2, the kinact/KI was 933 M⁻¹ s⁻¹ and the “Fold PAD2 Selectivity” value is on record as 40 fold. Besides, at PAD3, the kinact/KI was 23.3 M⁻¹ s⁻¹ and the “Fold PAD3 Selectivity” value was 2.0 fold. At PAD4, the kinact/KI is 46.7 M⁻¹ s⁻¹ and the “Fold PAD4 Selectivity” value was determined as 1.0 fold.
On to `CCN1Cc2cccc(C(=O)N[C@@H](CCCNC(=N)CCl)c3nc4c(OC)cccc4n3CC)c2C1=O` [Compound 8v, N1-(2-ethyl-3-oxoisoindoline)benzoyl-N5-(2-chloro-1-iminoethyl)-1-(4-methoxy-1-ethyl-benzo[d]imidazol-2-yl)-L-ornithine], for which, on PAD1, the kinact/KI is 907 M⁻¹ s⁻¹ and the “Fold PAD1 Selectivity” value was found to be 31 fold. At PAD2, the kinact/KI is 776 M⁻¹ s⁻¹ and the “Fold PAD2 Selectivity” value worked out at 27 fold. Also, at PAD3, the kinact/KI is 99.5 M⁻¹ s⁻¹ and the “Fold PAD3 Selectivity” value came out at 3.4 fold. For the same molecule, at PAD4, the kinact/KI was 29.2 M⁻¹ s⁻¹ and the “Fold PAD4 Selectivity” value was determined as 1.0 fold.
`CCN1Cc2cccc(C(=O)N[C@@H](CCCNC(=N)CF)c3nc4cc(OC)ccc4[nH]3)c2C1=O` [Compound 8w, N1-(2-ethyl-3-oxoisoindoline)benzol-N5-(2-fluoro-1-iminoethyl)-1-(5-methoxy-1H-benzo[d]imidazol-2-yl)-L-ornithine]: on PAD1, the kinact/KI is 156 M⁻¹ s⁻¹ and the “Fold PAD1 Selectivity” value is 4.4 fold. Further, at PAD2, the kinact/KI was 226 M⁻¹ s⁻¹ and the “Fold PAD2 Selectivity” value was 6.3 fold. On PAD3, the kinact/KI is 127 M⁻¹ s⁻¹ and the “Fold PAD3 Selectivity” value worked out at 3.6 fold. Also, at PAD4, the kinact/KI is 35.7 M⁻¹ s⁻¹ and the “Fold PAD4 Selectivity” value was 1.0 fold.
In the case of `CCN1Cc2cccc(C(=O)N[C@@H](CCCNC(=N)CCl)c3nc4cc(OC)ccc4[nH]3)c2C1=O` [Compound 8x, N1-(2-ethyl-3-oxoisoindoline)benzoyl-N5-(2-chloro-1-iminoethyl)-1-(5-methoxy-1H-benzo[d]imidazol-2-yl)-L-ornithine], at PAD1, the kinact/KI is 504 M⁻¹ s⁻¹ and the “Fold PAD1 Selectivity” value worked out at 7.8 fold. For the same molecule, on PAD2, the kinact/KI was 590 M⁻¹ s⁻¹ and the “Fold PAD2 Selectivity” value worked out at 9.1 fold. In addition, at PAD3, the kinact/KI was 267 M⁻¹ s⁻¹ and the “Fold PAD3 Selectivity” value is 4.1 fold. In addition, at PAD4, the kinact/KI was 64.8 M⁻¹ s⁻¹ and the “Fold PAD4 Selectivity” value came to 1.0 fold.
Take `CCN1Cc2cccc(C(=O)N[C@@H](CCCNC(=N)CF)c3nc4cc(OC)ccc4n3CC)c2C1=O` [Compound 8y, N1-(2-ethyl-3-oxoisoindoline)benzoyl-N5-(2-fluoro-1-iminoethyl)-1-(5-methoxy-1-ethyl-benzo[d]imidazol-2-yl)-L-ornithine]: on PAD1, the kinact/KI is 253 M⁻¹ s⁻¹ and the “Fold PAD1 Selectivity” value was 28 fold. At PAD2, the kinact/KI was 630 M⁻¹ s⁻¹ and the “Fold PAD2 Selectivity” value amounted to 70 fold. Further, on PAD3, the kinact/KI is 24.7 M⁻¹ s⁻¹ and the “Fold PAD3 Selectivity” value is listed as 2.7 fold. At PAD4, the kinact/KI is 9 M⁻¹ s⁻¹ and the “Fold PAD4 Selectivity” value is reported as 1.0 fold.
`CCN1Cc2cccc(C(=O)N[C@@H](CCCNC(=N)CCl)c3nc4cc(OC)ccc4n3CC)c2C1=O` [Compound 8z, N1-(2-ethyl-3-oxoisoindoline)benzoyl-N5-(2-chloro-1-iminoethyl)-1-(5-methoxy-1-ethyl-benzo[d]imidazol-2-yl)-L-ornithine]: at PAD1, the kinact/KI is 501 M⁻¹ s⁻¹ and the “Fold PAD1 Selectivity” value is 21 fold. Also, on PAD2, the kinact/KI is 637 M⁻¹ s⁻¹ and the “Fold PAD2 Selectivity” value was 27 fold. Further, at PAD3, the kinact/KI was 198 M⁻¹ s⁻¹ and the “Fold PAD3 Selectivity” value was determined as 8.4 fold. On PAD4, the kinact/KI was 23.5 M⁻¹ s⁻¹ and the “Fold PAD4 Selectivity” value is listed as 1.0 fold.
For the molecule `Cn1c([C@H](CCCNC(=N)CF)NC(=O)c2ccccc2C(=O)OC(C)(C)C)nc2ccccc21` [Compound 9a, N1-(2-tert-butylcarboxy)benzoyl-N5-(2-fluoro-1-iminoethyl)-1-(1-methyl-benzo[d]imidazol-2-yl)-L-ornithine], at PAD1, the kinact/KI was 41.2 M⁻¹ s⁻¹ and the “Fold PAD1 Selectivity” value is given as 2.1 fold. At PAD2, the kinact/KI is 40 M⁻¹ s⁻¹ and the “Fold PAD2 Selectivity” value came to 2.0 fold. Also, at PAD3, the kinact/KI was 20 M⁻¹ s⁻¹ and the “Fold PAD3 Selectivity” value is reported as 1.0 fold. Moreover, on PAD4, the kinact/KI was 40.5 M⁻¹ s⁻¹ and the “Fold PAD4 Selectivity” value was 2.0 fold.

The record behind these values is patent US11208386B2, “Inhibitors of protein arginine deiminases (PADs) and methods of preparation and use thereof” (University of Massachusetts, priority 2016, dated 2021).
